The assay deals with durch 310 ng Angiotensin I ausgelösten Pressorreaktion. Kind of assay: Inhibition of the angiotensin I induced pressor response after intraduodenal administration to the anaesthetised rat. The format is in vivo, Ratte. To be noted: dose giving 50 % inhibition of the pressor response to 310 ng angiotensin I, 30 min after application. As for the experimental part:
Intraduodenale Gabe an der narkotisierten Ratte, 50 % Hemmung der durch 310 ng Angiotensin I ausgelösten Pressorreaktion 30 min. nach Applikation in der Dosis .............- ED50: […]

Counter-ions that a name gives are not always drawn. Like-named read-outs stand apart in the source and are kept apart here.

One may read the ED50 as the dose that gives a 50% effect, or the effect in half of the subjects.

Compound `CCOC(=O)[C@H](CC(=O)c1ccccc1)N[C@@H](C)C(=O)N1C2CCC(C2)[C@H]1C(=O)O` (stereo partly drawn) [N-(1-S-Carbethoxy-3-oxo-3-phenyl-propyl)-S-alanyl-2-azabicyclo [2.2.1] heptan-3-S-exo-carbonsäure] registered an ED50 of 0.9 mg/kg.

Turning to `CCOC(=O)[C@H](CC(=O)c1ccccc1)N[C@@H](C)C(=O)N1[C@H]2CC[C@H](C2)[C@H]1C(=O)O` [N-(1-S-Carbethoxy-3-phenyl-3-oxo-propyl)-S-alanyl-2-azabicyclo [2.2.1] heptan-3-S-endo-carbonsäure. Hydrochlorid], the 50% effective dose (ED50) (0.5 h, read-out: ED50) worked out at 0.75 mg/kg.

On to `C[C@H](N[C@@H](CCc1ccccc1)C(=O)O)C(=O)N1C2CCC(C2)[C@H]1C(=O)O` (stereo partly drawn) [n=1, X=C6H5, Y=H, Z=H, R^1=H, R^2=CH3, R=H, endo] [N-(1-S-Carboxy-3-phenyl-propyl)-S-alanyl-2-azabicyclo , [2.2.1] heptan-3-S-endo-carbonsäure], for which the ED50 (30 min) amounted to 1.6 mg/kg.

For `C[C@H](N[C@@H](CCc1ccccc1)C(=O)O)C(=O)N1C2CCC(C2)[C@H]1C(=O)O` (stereo partly drawn) [n=1, X=C6H5, Y=H, Z=H, R^1=H, R^2=CH3, R=H, exo] [N-(1-S-Carboxy-3-phenyl-propyl)-S-alanyl-2-azabicyclo [2.2.1 J heptan-3-S-exo-carbonsäure], the median effective dose (ED50) (30 min) was found to be 1.8 mg/kg.

Turning to “N-(1-S-Carbethoxy-3-phenyl-propyl)-S-alanyl-2-azabicyclo [2.2.1 ] heptan-3-S-exo-carbonsäure Hydrochlorid”, the ED50 was 0.7 mg/kg.

The compound “N-(1-S-Carbethoxy-3-phenyl-propyl)-S-alanyl-2-azabicyclo [ 2.2.1] heptan-3-S-endo-carbonsäure-Hydrochlorid” yielded an ED50 of 0.5 mg/kg.

The values are drawn from EP0113880A2, “Derivatives from 2-azabicyclo(2.2.1)heptane, process for their preparation, agents containing them and their use, and 2-azabicyclo(2.2.1)heptane derivatives as intermediates, and process for their preparation” (HOECHST AKTIENGESELLSCHAFT, priority 1982, dated 1984).
